What was measured:
Assay in all cases: relative IC50 (inflection point of fitted viability curve, relative to fitted max inhibition); higher = less sensitive
Conditions in all cases: 72 h
[1] = tested on: normal primary NK cells, pool 3 (3 donors) (IL-2 2.5 ng/mL)
Description: (§1)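 Drug sensitivity and resistance testing: 5 concentrations over a 10,000-fold range, 72 h at 37 °C, viability by CellTiter-Glo normalised to DMSO and benzethonium chloride controls. IC50 is the inflection point of a logistic fit (min fixed at 0, max fitted), so it is relative to the fitted maximal inhibition. Kept only where fitted max inhibition is at least 50%.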

DERL-7 (IL-2 2.5 ng/mL) = tested on: DERL-7 (IL-2 2.5 ng/mL)
Description: as §1

NK-YS (IL-2 2.5 ng/mL) = tested on: NK-YS (IL-2 2.5 ng/mL)
Description: as §1

IMC-1 (IL-2 20 ng/mL) = tested on: IMC-1 (IL-2 20 ng/mL)
Description: as §1

SNK-6 (IL-2 2.5 ng/mL) = tested on: SNK-6 (IL-2 2.5 ng/mL)
Description: as §1

[2] = tested on: normal primary NK cells, pool 2 (3 donors) (IL-2 2.5 ng/mL)
Description: as §1

NK-92 (IL-2 2.5 ng/mL) = tested on: NK-92 (IL-2 2.5 ng/mL)
Description: as §1

[3] = tested on: normal primary NK cells, pool 1 (3 donors), resting (IL-2 0 ng/mL)
Description: as §1

NKL (IL-2 2.5 ng/mL) = tested on: NKL (IL-2 2.5 ng/mL)
Description: as §1

KAI3 (IL-2 2.5 ng/mL) = tested on: KAI3 (IL-2 2.5 ng/mL)
Description: as §1

KHYG-1 (IL-2 2.5 ng/mL) = tested on: KHYG-1 (IL-2 2.5 ng/mL)
Description: as §1

YT (IL-2 2.5 ng/mL) = tested on: YT (IL-2 2.5 ng/mL)
Description: as §1

[4] = tested on: normal primary NK cells, pool 1 (3 donors) (IL-2 2.5 ng/mL)
Description: as §1

SMILES | relative IC50 [1] [nM] | relative IC50 (DERL-7 (IL-2 2.5 ng/mL)) [nM] | relative IC50 (NK-YS (IL-2 2.5 ng/mL)) [nM] | relative IC50 (IMC-1 (IL-2 20 ng/mL)) [nM] | relative IC50 (SNK-6 (IL-2 2.5 ng/mL)) [nM] | relative IC50 [2] [nM] | relative IC50 (NK-92 (IL-2 2.5 ng/mL)) [nM] | relative IC50 [3] [nM] | relative IC50 (NKL (IL-2 2.5 ng/mL)) [nM] | relative IC50 (KAI3 (IL-2 2.5 ng/mL)) [nM] | relative IC50 (KHYG-1 (IL-2 2.5 ng/mL)) [nM] | relative IC50 (YT (IL-2 2.5 ng/mL)) [nM] | relative IC50 [4] [nM]
CN(C[C@@H]1COCCO1)S(=O)(=O)Nc1ccc2ccc3ncc(-c4cnn(C)c4)cc3c(=O)c2c1 [MK-2461] | > 10000 | 1770 |  |  |  |  |  |  |  |  |  |  | 
O=C(c1cccc(Cl)c1F)N1CCN(Cc2cccc(Nc3nccs3)n2)CC1 [MK-8745] | > 2500 | 376 | 203 | 709 | 204 | > 2500 |  |  |  |  |  |  | 
CO[C@@]12[C@H](COC(N)=O)C3=C(C(=O)C(C)=C(N)C3=O)N1C[C@@H]1N[C@@H]12 [Mitomycin C] | 1410 |  | 350 | 2710 | 423 | 1010 | 1510 | 1630 | 152 | 1060 | 432 | 3200 | 
O=C1c2c(O)ccc(O)c2C(=O)c2c(NCCNCCO)ccc(NCCNCCO)c21 [Mitoxantrone] |  | 80.5 | 114 | 170 | 34.8 | 185 |  | 151 | 32.2 | 91 | 158 |  | 322
Cc1cn(-c2cc(NC(=O)c3ccc(C)c(Nc4nccc(-c5cccnc5)n4)c3)cc(C(F)(F)F)c2)cn1 [Nilotinib] | > 10000 |  |  |  |  |  |  |  | 869 |  |  |  | 
NC(=O)c1cccc2cn(-c3ccc([C@@H]4CCCNC4)cc3)nc12 [Niraparib] |  | 2170 | 1490 | 1800 | 3140 |  | 1920 |  | 219 | 1580 | 2230 |  | 
O=C(c1cc(Cc2n[nH]c(=O)c3ccccc23)ccc1F)N1CCN(C(=O)C2CC2)CC1 [Olaparib] |  |  | 1620 | 1610 | 1670 |  | 1560 |  | 237 | 1260 | 2020 |  | 
COc1ccccc1S(=O)(=O)Nc1ccc2c(c1)CN(C)C(=O)N2 [PFI-1] |  | 1080 | 1310 | 2970 |  | 1780 |  |  | 1080 |  | 1640 | 2310 | 
CCn1nnc2c(N3CCOCC3)nc(-c3ccc(NC(=O)Nc4ccc(C(=O)N5CCN(C)CC5)cc4)cc3)nc21 [PKI-402] |  | 89.1 | 154 |  | 210 |  | 428 |  | 97.1 | 90.9 | 316 | 208 | 
C/C(=C\c1csc(C)n1)[C@@H]1C[C@@H]2O[C@]2(C)CCC[C@H](C)[C@H](O)[C@@H](C)C(=O)C(C)(C)[C@@H](O)CC(=O)O1 [Patupilone] |  | 2.74 | 11.7 | 3.36 | 2.61 |  | 6.8 |  | 12.4 | 6.77 | 15.2 | 8.42 | 
c1cc(CN2CCCNCCNCCCNCC2)ccc1CN1CCCNCCNCCCNCC1 [Plerixafor] | > 10000 |  |  |  |  | > 10000 |  |  |  |  |  |  | 
Nc1cccc2c1C(=O)N(C1CCC(=O)NC1=O)C2=O (stereo not given) [Pomalidomide] |  |  | > 10000 | > 10000 |  |  | > 10000 | > 10000 |  | > 10000 | > 10000 | > 10000 | 
C[C@]12C=CC(=O)C=C1CC[C@@H]1[C@@H]2C(=O)C[C@@]2(C)[C@H]1CC[C@]2(O)C(=O)CO [Prednisone] |  |  |  |  |  | > 10000 |  |  |  |  |  |  | 
Nc1cc(F)ccc1NC(=O)/C=C/c1cnn(C/C=C/c2ccccc2)c1 [RGFP966] |  | 1530 |  |  | 1460 |  | 1680 |  | 1350 | 1940 |  |  | 

— the supplement of paper PMC5908809
